The values that follow come from BindingDB's records for patent WO2022021841 (Sichuan University, 2022).

Molecules are shown by their SMILES.

For the assay, the target named is Replicase polyprotein 1ab (Severe acute respiratory syndrome coronavirus 2, UniProt P0DTD1). Nature of the assay: SARS-CoV-2 Coronavirus 3C Protease FRET Assay. The method, then:
IC50 values were calculated by fitting a curve of Vmax to experimental values with the controls (DMSO) as the top and bottom limits of the curve. […] GraphPad Prism is the analysis tool for all measurements.
Take `COC(=O)C[C@H](NC(=O)[C@@H]1CCCN1C(=O)c1cc2ccccc2[nH]1)C(=O)CF` [WO2022021841, 1]: the affinity, expressed as Ki, was 1100 nM.

For `COC(=O)C[C@H](NC(=O)[C@@H]1[C@@H]2[C@H](CN1C(=O)/C=C/c1ccccc1)C2(C)C)C(=O)CF` [WO2022021841, 2], the Ki (usually the equilibrium dissociation constant of an inhibitor or competing ligand from its target) worked out at 110 nM.

For `O=C(N[C@@H](C[C@@H]1CCNC1=O)C(=O)CF)C1[C@H]2CCC[C@H]2CN1C(=O)COc1ccc(Cl)cc1Cl` (stereo not given in full) [WO2022021841, 3], the Ki is 18 nM.

For `CC1CNC(=O)[C@@H]1C[C@H](NC(=O)C1[C@H]2CCC[C@H]2CN1C(=O)COc1ccc(Cl)cc1Cl)C(=O)CF` (stereo not given in full) [WO2022021841, 4], the Ki amounted to 12 nM. This Ki is about 1.5-fold lower than that of the compound before.

As for `CC1CNC(=O)[C@@H]1C[C@H](NC(=O)C1[C@H]2CCC[C@H]2CN1C(=O)COc1cccc(-c2ccccc2)c1)C(=O)CF` (stereo not given in full) [WO2022021841, 5], the affinity, expressed as Ki, was 11 nM.

On to `CC1CNC(=O)[C@@H]1C[C@H](NC(=O)C1[C@@H]2[C@H](CN1C(=O)COc1ccc(Cl)cc1Cl)C2(C)C)C(=O)CF` (stereo not given in full) [WO2022021841, 6], for which the Ki came out at 9 nM. The Ki values of the last two compounds are within 1.5-fold of each other.

In the case of `CC1CNC(=O)[C@@H]1C[C@H](NC(=O)C1[C@@H]2[C@H](CN1C(=O)COc1ccc(Cl)c(Cl)c1)C2(C)C)C(=O)CF` (stereo not given in full) [WO2022021841, 7], the Ki was 15 nM.

The compound `CC1CNC(=O)[C@@H]1C[C@H](NC(=O)C1[C@@H]2[C@H](CN1C(=O)COc1cccc(-c3ccc(Cl)cc3)c1)C2(C)C)C(=O)CF` (stereo not given in full) [WO2022021841, 8] registered a Ki of 17 nM.

As for `CC1(C)[C@@H]2C(C(=O)N[C@H](C=O)Cc3ccccc3)N(C(=O)c3ccc4ccccc4n3)C[C@@H]21` (stereo not given in full) [WO2022021841, 9], affinity was put at a Ki of 24200 nM. Compared with the last compound, the Ki is about 1400-fold higher.

In the case of `CC1(C)[C@@H]2C(C(=O)N[C@H](C=O)Cc3ccccc3)N(C(=O)c3ccc4ccccc4c3)C[C@@H]21` (stereo not given in full) [WO2022021841, 10], the Ki is 585 nM.

The compound `CCC[C@@H](NC(=O)C1[C@@H]2CCC[C@H]2CN1C(=O)c1cc2ccccc2[nH]1)C(=O)C(=O)NC1CC1` (stereo not given in full) [WO2022021841, 11] registered a Ki of 960 nM. This Ki is about 1.6-fold higher than that of the compound before.

As for `CCC[C@@H](NC(=O)C1[C@@H]2CCC[C@H]2CN1C(=O)[C@@H](c1ccccc1)C(C)C)C(=O)C(=O)NC1CC1` (stereo not given in full) [WO2022021841, 12], the affinity, expressed as Ki, was 16900 nM.

As for `CCC[C@@H](NC(=O)C1C2[C@H](CN1C(=O)[C@@H](c1ccccc1)C(C)C)C2(C)C)C(=O)C(=O)NC1CC1` (stereo not given in full) [WO2022021841, 13], the affinity corresponds to a Ki of 82700 nM.

Compound `CC1(C)[C@@H]2C(C(=O)N[C@H](C=O)C[C@@H]3CCNC3=O)N(C(=O)c3ccc4ccccc4c3)C[C@@H]21` (stereo not given in full) [WO2022021841, 16] displayed a Ki of 343 nM.

Compound `C[C@H](OCc1ccccc1)C(=O)N1C[C@@H]2CCC[C@@H]2C1C(=O)N[C@H](C=O)C[C@@H]1CCNC1=O` (stereo not given in full) [WO2022021841, 18] yielded a Ki of 28 nM. This Ki lies about 12-fold lower than the previous one.

`CC1(C)[C@@H]2C(C(=O)N[C@H](C=O)C[C@@H]3CCNC3=O)N(C(=O)COc3ccc4c(c3)OCO4)C[C@@H]21` (stereo not given in full) [WO2022021841, 21] came in with a Ki of 73 nM.

`O=C[C@H](C[C@@H]1CCNC1=O)NC(=O)C1[C@@H]2CCC[C@H]2CN1C(=O)COc1ccc2c(c1)OCCO2` (stereo not given in full) [WO2022021841, 22] returned a Ki of 93 nM. The Ki values of the last two compounds are within 1.5-fold of each other.

Compound `COc1cccc(OCC(=O)N2C[C@H]3[C@@H](C2C(=O)N[C@H](C=O)C[C@@H]2CCNC2=O)C3(C)C)c1` (stereo not given in full) [WO2022021841, 23] gave a Ki of 37 nM.

In turn, `O=C[C@H](C[C@@H]1CCNC1=O)NC(=O)C1[C@@H]2CCC[C@H]2CN1C(=O)CCc1ccc(F)c(F)c1` (stereo not given in full) [WO2022021841, 25] displayed a Ki of 16 nM.

`COc1ccc(OC(C)C(=O)N2C[C@@H]3CCC[C@H]3C2C(=O)N[C@H](C=O)C[C@@H]2CCNC2=O)cc1` (stereo not given in full) [WO2022021841, 29]: the affinity, expressed as Ki, was 78 nM.

For the compound `COc1ccc(OCC(=O)N2C[C@H]3[C@@H](C2C(=O)N[C@H](C=O)C[C@@H]2CCNC2=O)C3(C)C)cc1` (stereo not given in full) [WO2022021841, 32], the Ki is 36 nM.

On to `COc1cc(OCC(=O)N2C[C@H]3[C@@H](C2C(=O)N[C@H](C=O)C[C@@H]2CCNC2=O)C3(C)C)cc(OC)c1OC` (stereo not given in full) [WO2022021841, 35], for which the Ki was found to be 51 nM.

The compound `CC(C)(Oc1ccc(Cl)cc1Cl)C(=O)N1Cc2ccccc2CC1C(=O)N[C@H](C=O)C[C@@H]1CCNC1=O` (stereo not given in full) [WO2022021841, 38] registered a Ki of 91 nM.

`CC(C)(Oc1ccc(Cl)cc1Cl)C(=O)N1C[C@@H]2CCC[C@H]2C1C(=O)N[C@H](C=O)C[C@@H]1CCNC1=O` (stereo not given in full) [WO2022021841, 39] showed an inhibition constant Ki of 33 nM. This Ki is about 2.8-fold lower than that of the compound before.

Consider `CC1CNC(=O)[C@@H]1C[C@@H](C=O)NC(=O)C1[C@@H]2CCC[C@H]2CN1C(=O)COc1ccc(Cl)cc1Cl` (stereo not given in full) [WO2022021841, 40], for which the Ki came to 17 nM.

Take `CC1CNC(=O)[C@@H]1C[C@@H](C=O)NC(=O)C1[C@@H]2CCC[C@H]2CN1C(=O)C(C)(C)Oc1ccc(Cl)cc1Cl` (stereo not given in full) [WO2022021841, 41]: the Ki came out at 56 nM.

Compound `O=C(N[C@@H](C[C@@H]1CCNC1=O)C(=O)CCl)C1[C@@H]2CCC[C@H]2CN1C(=O)COc1ccc(Cl)cc1Cl` (stereo not given in full) [WO2022021841, 42] yielded a Ki of 19 nM.

For `O=C[C@H](C[C@@H]1CCNC1=O)NC(=O)C1[C@@H]2CCC[C@H]2CN1C(=O)COc1cccc(-c2ccccc2)c1` (stereo not given in full) [WO2022021841, 46], the affinity, expressed as Ki, was 10 nM.

On to `CC1CNC(=O)[C@@H]1C[C@@H](C=O)NC(=O)C1[C@@H]2CCC[C@H]2CN1C(=O)COc1cccc(-c2ccccc2)c1` (stereo not given in full) [WO2022021841, 47], for which the Ki was found to be 12 nM. This Ki and that of the compound before are within 1.5-fold of each other.

In turn, `CC1CNC(=O)[C@@H]1C[C@@H](C=O)NC(=O)C1[C@@H]2[C@H](CN1C(=O)COc1ccc(Cl)c(Cl)c1)C2(C)C` (stereo not given in full) [WO2022021841, 48] had a Ki of 11 nM. The Ki values of the last two compounds are within 1.5-fold of each other.

`CC1CNC(=O)[C@@H]1C[C@@H](C=O)NC(=O)C1[C@@H]2[C@H](CN1C(=O)COc1cccc(-c3ccc(Cl)cc3)c1)C2(C)C` (stereo not given in full) [WO2022021841, 49] displayed a Ki of 22 nM.

With `CC(C)(C)NC(=O)C(=O)[C@H](C[C@@H]1CCNC1=O)NC(=O)C1[C@@H]2CCC[C@H]2CN1C(=O)COc1ccc(Cl)cc1Cl` (stereo not given in full) [WO2022021841, 50], the Ki was determined as 1190 nM.

`O=C(NCc1ccccc1)C(=O)[C@H](C[C@@H]1CCNC1=O)NC(=O)C1[C@@H]2CCC[C@H]2CN1C(=O)COc1ccc(Cl)cc1Cl` (stereo not given in full) [WO2022021841, 51] returned a Ki of 50400 nM.

In turn, `O=C(NC1CC1)C(=O)[C@H](C[C@@H]1CCNC1=O)NC(=O)C1[C@@H]2CCC[C@H]2CN1C(=O)COc1ccc(Cl)cc1Cl` (stereo not given in full) [WO2022021841, 52] displayed a Ki of 875 nM. This Ki lies about 58-fold lower than the previous one.

As to `O=C(NCc1ccccn1)C(=O)[C@H](C[C@@H]1CCNC1=O)NC(=O)C1[C@@H]2CCC[C@H]2CN1C(=O)COc1ccc(Cl)cc1Cl` (stereo not given in full) [WO2022021841, 53], the Ki was 63100 nM. Against the preceding compound, the Ki is about 72-fold higher.

In turn, `CC1(C)CNC(=O)[C@@H]1C[C@@H](C=O)NC(=O)C1[C@@H]2CCC[C@H]2CN1C(=O)COc1ccc(Cl)cc1Cl` (stereo not given in full) [WO2022021841, 54] displayed a Ki of 24 nM.

As for `CC1(C)CNC(=O)[C@@H]1C[C@@H](C=O)NC(=O)C1[C@H]2[C@H](CN1C(=O)COc1ccc(Cl)cc1Cl)C2(C)C` (stereo not given in full) [WO2022021841, 55], the affinity, expressed as Ki, was 31 nM.

`CC1(C)[C@H]2CN(C(=O)COc3ccc(Cl)cc3Cl)C(C(=O)N[C@H](C=O)C[C@H]3C(=O)NCC3(F)F)[C@@H]21` (stereo not given in full) [WO2022021841, 56]: the Ki was found to be 33 nM.

`COc1ccc(CNC(=O)N2C[C@@H]3CCC[C@H]3C2C(=O)N[C@H](C=O)C[C@@H]2CCNC2=O)cc1` (stereo not given in full) [WO2022021841, 57] came in with an inhibitory constant (Ki) of 26 nM.

`O=C[C@H](C[C@@H]1CCNC1=O)NC(=O)C1[C@@H]2CCC[C@H]2CN1C(=S)NCc1ccc(F)cc1` (stereo not given in full) [WO2022021841, 58] had a Ki of 30 nM.
